{
  "source": "patent US20120220658A1",
  "about": "“Method for Treating Sepsis or Septic Shock” (University of Medicine and Dentistry of New Jersey, priority 2009, published 2012)",
  "key": {"[1]": {"test_system": "bacterial load in CLP rats", "assay": "Bacterial load (CFU) in blood and peritoneal lavage fluid after CLP", "type": "in vivo, male Sprague-Dawley rats", "conditions": "40 μg/kg i.p. 5 h after CLP; 48 hours after CLP; vs saline vehicle", "protocol": "(§1) Surgery. Cecal ligation and perforation (CLP) was performed on male Sprague-Dawley rats (250-350 g) according to known methods (Chaudry, et al. (1979) Surgery 85:205-21). The CLP model of sepsis is an established, clinically relevant model of sepsis (Rittirsch et al., (2009) Nature Protocol 4(1):31-36). Animals were fasted overnight before surgery. On the day of surgery, rats were anesthetized with Isofluorane (+oxygen). A 2-cm-long midline incision was made in the abdomen to expose the cecum. Fecal matter was massaged into the cecum. The distal two-thirds of the cecum was ligated with 4.0 surgical silk. Using an 18-gauge needle, the cecum was punctured twice. Some fecal matter was massaged out of the cecum through these holes. The cecum was placed back into the abdomen, which was then closed. Saline (2 ml/100 g; s.c.) was injected to replace any fluids lost during surgery. Five hours after surgery, the rats were given either LXA4 (40 μg/kg rat; i.p.) or saline vehicle. This concentration of LXA4 was derived from published in vivo work in rodents (Bannenberg et al., (2004) Br. J. Pharmacol. 143:43-52). […]\nBacterial Load. […] At the end of the incubation period, colony forming units (CFU) were counted.\nBacterial Load. Bacterial load in blood and peritoneal lavage fluid was measured after plating of serially diluted samples on tryptic soy agar plates. […]"}, "MCP-1": {"test_system": "MCP-1", "assay": "Plasma MCP-1 level after CLP", "type": "in vivo, male Sprague-Dawley rats", "conditions": "40 μg/kg i.p. 5 h after CLP; 48 hours after CLP; vs saline vehicle", "protocol": "as §1\nPlasma IL-6, MCP-1 and IL-10 Levels. Plasma IL-6, MCP-1 and IL-10 levels were measured using commercially available kits.\nPlasma MCP-1. […] Accordingly, plasma MCP-1 was measured as another marker of systemic inflammatory response. […]"}, "IL-10": {"test_system": "IL-10", "assay": "Plasma IL-10 level after CLP", "type": "in vivo, male Sprague-Dawley rats", "conditions": "40 μg/kg i.p. 5 h after CLP; 48 hours after CLP; vs saline vehicle", "protocol": "as §1, with “143:43-52). At the end of 48 hours, rats were anesthetized with pentobarbital (50 mg/kg, i.p.).” for “143:43-52).”\n(§2) Plasma IL-6, MCP-1 and IL-10 Levels. Plasma IL-6, MCP-1 and IL-10 levels were measured using commercially available kits. […]"}, "[2]": {"test_system": "peritoneal leukocytes of CLP rats", "assay": "Peritoneal cell count and differential after CLP", "type": "in vivo, male Sprague-Dawley rats", "conditions": "40 μg/kg i.p. 5 h after CLP; 48 hours after CLP; vs CLP rats given saline", "protocol": "Surgery. Cecal ligation and perforation (CLP) was performed on male Sprague-Dawley rats (250-350 g) according to known methods (Chaudry, et al. (1979) Surgery 85:205-21). The CLP model of sepsis is an established, clinically relevant model of sepsis (Rittirsch et al., (2009) Nature Protocol 4(1):31-36). Animals were fasted overnight before surgery. On the day of surgery, rats were anesthetized with Isofluorane (+oxygen). A 2-cm-long midline incision was made in the abdomen to expose the cecum. Fecal matter was massaged into the cecum. The distal two-thirds of the cecum was ligated with 4.0 surgical silk. Using an 18-gauge needle, the cecum was punctured twice. Some fecal matter was massaged out of the cecum through these holes. The cecum was placed back into the abdomen, which was then closed. Saline (2 ml/100 g; s.c.) was injected to replace any fluids lost during surgery. Five hours after surgery, the rats were given either LXA4 (40 μg/kg rat; i.p.) or saline vehicle. This concentration of LXA4 was derived from published in vivo work in rodents (Bannenberg et al., (2004) Br. J. Pharmacol. 143:43-52). At the end of 48 hours, rats were anesthetized with pentobarbital (50 mg/kg, i.p.). A midline incision was made and the peritoneal cavity was lavaged with 20 ml of PBS containing 0.38% Na citrate (as anticoagulant).\nTwo hundred μl of lavage fluid was taken immediately for measurement of bacterial load. The rest of the fluid was passed through a […] (diameter) nylon mesh to remove debris and then centrifuged at 110×g for 7 minutes at 4° C. The supernatant was removed and stored at −80° C. for further analyses. Forty ml red blood cell lysis buffer was added to the cell pellet for 10 minutes with gentle inversion before being centrifuged again at 110×g (7 minutes; 4° C.). Cells were resuspended in 1 ml PBS.\nPeritoneal Cell Differential. Peritoneal cells were counted using an automated hemocytometer (Beckman Coulter Counter; Z4) and then cytospun onto superfrost ++ slides. In order to perform cell differentials, DIFQUIK staining was performed according to manufacturer's instructions. […]"}, "CLP rats [3]": {"test_system": "CLP rats", "assay": "Survival in cecal ligation and perforation (CLP) model of sepsis, LXA4 i.p.", "type": "in vivo, male Sprague-Dawley rats", "conditions": "40 μg/kg i.p. five hours after CLP surgery; subgroup of rats that lived longer than 48 hours; vs vehicle treated CLP rats", "protocol": "as §1, with “vehicle.” for “vehicle. This concentration of LXA4 was derived from published in vivo work in rodents (Bannenberg et al., (2004) Br. J. Pharmacol. 143:43-52).”\nIn this study, the effect of LXA4 in the clinically relevant cecal ligation and puncture (CLP) model of sepsis was analyzed. […]\nSurvival. […] As there was a significant change in the slope of the individual survival curves starting at 48 hours, the effects of LXA4 on systemic inflammatory mediator release, bacterial load and peritoneal leukocyte counts 48 hours after CLP sepsis were analyzed."}, "IL-6": {"test_system": "IL-6", "assay": "Plasma IL-6 level after CLP", "type": "in vivo, male Sprague-Dawley rats", "conditions": "40 μg/kg i.p. 5 h after CLP; 48 hours after CLP; vs saline vehicle", "protocol": "as §1, with “143:43-52). At the end of 48 hours, rats were anesthetized with pentobarbital (50 mg/kg, i.p.).” for “143:43-52).”\nas §2"}, "CLP rats [4]": {"test_system": "CLP rats", "assay": "Survival after CLP-induced sepsis, intravenous LXA4", "type": "in vivo", "conditions": "8 μg/kg i.v., single dose 1 hour after CLP; monitored every 24 hours for 8 days", "protocol": "as §1\nTo further examine the use of LXA4 in the treatment of sepsis, the effect intravenous LXA4 administration on survival after CLP-induced sepsis was examined. […] Survival was monitored every 24 hours for 8 days (FIG. 7)."}},
  "note": "“Also recorded” adds a separate entry of the source.",
  "data": [
    {"smiles": "CCCCC[C@H](O)/C=C/C=C\\C=C\\C=C\\[C@@H](O)[C@@H](O)CCCC(=O)O", "note": "[LXA4, 5S,6R,15S-trihydroxy-7E,9E,11Z,13E-Eicosatetraenoic acid]", "values": [
      {"measurement": "bacterial load in the peritoneal cavity (CFU)", "setting": "[1]", "result": "reduced bacterial load in the peritoneal cavity but the reduction did not reach significance"},
      {"measurement": "blood bacterial load (CFU)", "setting": "[1]", "result": "reduces blood bacterial load; also recorded: substantially reduced blood bacterial load"},
      {"measurement": "plasma MCP-1 levels", "setting": "MCP-1", "result": "reduced plasma levels of MCP-1; also recorded: significantly reduced plasma MCP-1 levels"},
      {"measurement": "plasma IL-10 levels", "setting": "IL-10", "result": "significantly decreased plasma IL-10 levels"},
      {"measurement": "number of monocytes/macrophages in the peritoneal cavity", "setting": "[2]", "result": "increased the number of monocytes/macrophages"},
      {"measurement": "number of neutrophils in the peritoneal cavity", "setting": "[2]", "result": "without affecting the number of neutrophils; also recorded: number of neutrophils remained similar in both groups"},
      {"measurement": "total number of peritoneal cells (leukocytes)", "setting": "[2]", "result": "increased the total number of peritoneal cells; also recorded: increased peritoneal leukocytes further"},
      {"measurement": "survival (Kaplan-Meier, log-rank test)", "setting": "CLP rats [3]", "result": "significantly increased survival; also recorded: increased survival rate"},
      {"measurement": "plasma IL-6 levels", "setting": "IL-6", "result": "reduced plasma levels of IL-6"},
      {"measurement": "survival (Kaplan-Meier, log rank test)", "setting": "CLP rats [4]", "result": "significantly increased survival"}
    ]}
  ]
}
